The values below come from patent US8986419B2, “Mixture for treating fertilizers” (SKW Stickstoffwerke Piesteritz GmbH, priority 2010, dated 2015).

The nature of data set [1]: Simulated open storage test of treated urea granules, TZ/3-MP content determined analytically. Type of data set: physicochemical. The following applies: storage period 6 weeks, 9 kg in open-topped vessels, ambient temperature and humidity; listed as pure 3-methylpyrazole sprayed on. The protocol: The urea granules enclosed in the cement mixer according to Example 8 were stored in a quantity of 9 kg to simulate storage in a pile in open-topped cylindrical vessels (height 30 cm, diameter 30 cm) at ambient temperature and humidity. After a storage period of 2, 4 and 6 weeks average samples were taken and the nitrification inhibitor TZ/3-MP content was determined analytically.
Enclosed urea granules according to Example 9 were stored in the same way in parallel, and average samples taken from these were investigated analytically.

A short description of data set [2]: Laboratory test on the volatility of 3-methylpyrazole, storage in open crystallising dishes at room temperature. It counts as physicochemical. The following applies: open crystallising dish diameter 5 cm.
The conditions of data set [3]: aqueous formulation; cited from earlier work.

In general, solubility refers to the dissolved amount per volume that the medium holds.

≈ marks a conversion by molar mass, not a printed value. Where “and” joins values, the source holds several entries; their conditions need not be identical. Equal values may be shown once.

Take `Cc1cc[nH]n1` [Example 3-MP, 3-methylpyrazole]: in data set [1], the “Active substance losses in relation to the starting value, MP (%)” value was 89 ^1% and 89%. Moreover, the loss in % is reported as 12% in data set [2] (storage time 1 day); 26% in data set [2] (storage time 2 days); 40% in data set [2] (storage time 3 days); 87% in data set [2] (storage time 6 days); 100% in data set [2] (storage time 12 days).

Regarding `c1nc[nH]n1` [TZ, 1,2,4-triazole], the loss in % amounted to 0% in data set [2] (storage time 1 day); 0% in data set [2] (storage time 2 days); 1% in data set [2] (storage time 3 days); 2% in data set [2] (storage time 6 days); 2% in data set [2] (storage time 12 days).

Regarding `N#CN=C(N)N` [dicyandiamide, Dicyandiamide], in data set [3], the solubility was 32 g/L (≈ 381 mM).
